Data: PubChem BioAssay (NCI)
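Growth conditions: 96-well plates. Treatment: test compound, 48 hours, 5 concentrations. Analysis: linear interpolation between bracketing concentrations; unreached endpoints set to highest concentration. Abbreviation: GI50, concentration required for 50% inhibition of growth. TGI marks complete inhibition of growth.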

Key:
Experiment in all cases: DTP human tumour cell line panel, 48 h
M14 melanoma = tested on: M14 melanoma
T-47D breast = tested on: T-47D breast
MCF7 breast = tested on: MCF7 breast
LOX IMVI melanoma = tested on: LOX IMVI melanoma
UO-31 renal = tested on: UO-31 renal
PC-3 prostate = tested on: PC-3 prostate
U251 CNS = tested on: U251 CNS
UACC-62 melanoma = tested on: UACC-62 melanoma
BT-549 breast = tested on: BT-549 breast
HS 578T breast = tested on: HS 578T breast

SMILES	GI50 (M14 melanoma) [µM]	TGI (M14 melanoma) [µM]	GI50 (T-47D breast) [µM]	TGI (T-47D breast) [µM]	GI50 (MCF7 breast) [µM]	TGI (MCF7 breast) [µM]	GI50 (LOX IMVI melanoma) [µM]	TGI (LOX IMVI melanoma) [µM]	GI50 (UO-31 renal) [µM]	TGI (UO-31 renal) [µM]	GI50 (PC-3 prostate) [µM]	TGI (PC-3 prostate) [µM]	GI50 (U251 CNS) [µM]	TGI (U251 CNS) [µM]	GI50 (UACC-62 melanoma) [µM]	TGI (UACC-62 melanoma) [µM]	GI50 (BT-549 breast) [µM]	TGI (BT-549 breast) [µM]	GI50 (HS 578T breast) [µM]	TGI (HS 578T breast) [µM]
O=C(C(=O)c1cc(Br)ccc1O)c1cc(Br)ccc1O	4.96	20.1	3.87	> 100	7.34	> 100	3.48	13.6	1.97	6.51	3.13	15.7	2.8	9.94	3.94	17				
COc1cc(CCc2ccc(OC(C)=O)cc2)cc(OC)c1OC		> 100						> 100		> 100				> 100		> 100				
Nc1nc(=S)[nH]c(C(=O)Nc2nccs2)c1-c1ccccc1		> 100						> 100		> 100				> 100		> 100				
CN(C)c1ccc(O[Si](Oc2ccc(N(C)C)cc2)(Oc2ccc(N(C)C)cc2)Oc2ccc(N(C)C)cc2)cc1		> 100						> 100		> 100				> 100		> 100				
CCCCCCCCCCCCCCC(C)CCC(=O)O (stereo not given)								> 100						> 100		> 100				
COc1ccc(C(=O)O/N=C2/CCCCC2CN(C)C)cc1 (stereo not given)		> 100						> 100		> 100				> 100		> 100				
N#CC(NC(=O)CCl)=C(Cl)Cl	1.34	2.87			1.22	9.07	1.57	3.1	1.25	2.56	1.69	4.22	1.75	3.79	1.34	2.69	1.93	4.1	3.46	17.1
OCC#Cc1ccccc1C#Cc1ccc(C#Cc2ccccc2)cc1	17.5	43.9			15.9	38.3	24.6	> 100	28.6	> 100	15.1	34.2	19.9	38.6	19.9	36.1	35.6	> 100	31	> 100
CN(C)c1ccc(N=C2C=CC(=C(C#N)C#N)c3ccccc32)cc1		8.79				7.51		3.49		14.2		10.8		6.53		3.32		5.12		
OCC(O)C(O)C(O)C(O)c1nn[nH]n1 (stereo not given)		> 100						> 100		> 100				> 100		> 100				
CC1CC(C)C(C(O)CC2CC(=O)N(c3ccccc3)C(=O)C2)C(O)C1 (stereo not given)		> 100						> 100		> 100				> 100		> 100				
Nc1ncc(C2[C@H](CNC(=O)c3cc(Br)c[nH]3)C(CNC(=O)c3cc(Br)c[nH]3)[C@@H]2c2cnc(N)[nH]2)[nH]1 (stereo not given in full)	> 50	> 50			> 50	> 50	> 50	> 50	> 50	> 50	> 50	> 50	> 50	> 50	> 50	> 50	6.71	> 50	40.1	> 50
c1ccc2c3c([nH]c2c1)C1C2CCCCN2C(c2ccncc2)N1CC3 (stereo not given)		> 100						> 100		34.8				> 100		> 100				
NNC(=O)N/N=C1\CN(c2ccc(Cl)cc2Cl)C(=O)C(=O)C1c1nc2ccccc2o1 (stereo not given)		> 100								> 100				> 100		> 100				
[Cl-].[Gd+3].[O-]/N=C(\c1ccccc1)c1ccccn1.[O-]/N=C(\c1ccccc1)c1ccccn1.[O-]/N=C(\c1ccccc1)c1ccccn1	51.4	> 100					28.5	76.5	35.3	> 100			68.9	> 100	40.7	> 100				
O=C(/C=C(\[O-])c1ccccc1)CCCCCCC(=O)/C=C(\[O-])c1ccccc1.O=C(/C=C(\[O-])c1ccccc1)CCCCCCC(=O)/C=C(\[O-])c1ccccc1.O=C(/C=C(\[O-])c1ccccc1)CCCCCCC(=O)/C=C(\[O-])c1ccccc1.[Nd+3].[Nd+3]	> 50	> 50					> 50	> 50	> 50	> 50			> 50	> 50	> 50	> 50				
